# In patent publication US8507464B2, “Phosphoramidate alkylator prodrugs” (Threshold Pharmaceuticals, Inc., priority 2005, dated 2013):
# Read-outs that look alike come from different tables or passages of the source.
# Tests used:
# [1] = Solubility in saline at room temperature; format: physicochemical; settings: saline or isotonic
# [2] = system: NCI-H460 cells; experiment: Antiproliferation assay - oxygen dependence; format: cell-based, human; settings: Homo sapiens
# Excerpt: . […] The calculated IC50 values (μM) are tabulated in Table Y1 (H460 cells) or Table Y2 (HT29 cells) below.
# [3] = format: physicochemical; settings: glassy carbon, Ag/AgCl reference
# [4] = In vivo plasma or tumor pharmacokinetics of Compound 25 (Table 4); design: species or system CD-1 mice (nude mice where noted)
# [5] = in vivo; settings: for half-life: t ½, mice
# [6] = Plasma stability (Table 2B); settings: at 20 min
# [7] = system: H460 lung carcinoma spheroids; experiment: Spheroid model, clonogenic survival; settings: Homo sapiens, NCI-H460, 2 h, read-out: IC90 H460 Spheroid 10% O2
# [8] = system: AA8 cells (wild type); experiment: Antiproliferation assay - DNA mutant repair cells; settings: Cricetulus griseus, CHO-AA8, 2 h
# [9] = system: EM9 cells (XRCC1); experiment: Antiproliferation assay - DNA mutant repair cells; settings: Cricetulus griseus, 2 h
# [10] = system: UV41 cells (XPF); experiment: Antiproliferation assay - DNA mutant repair cells; settings: Cricetulus griseus, 2 h
# [11] = system: UV135 cells (XPG); experiment: Antiproliferation assay - DNA mutant repair cells; settings: Cricetulus griseus, 2 h
# [12] = system: IRS1SF cells (XRCC3); experiment: Antiproliferation assay - DNA mutant repair cells; settings: Cricetulus griseus, 2 h
# [13] = system: H460 cells exposed as monolayers; experiment: Clonogenic survival of monolayer cells (Example 35); settings: Homo sapiens, NCI-H460, 2 h
# [14] = system: NCI-H460 cells; experiment: Antiproliferation assay (Alamar Blue), anoxia vs air; settings: Homo sapiens, NCI-H460, 2 h
# [15] = system: HT29 cells; experiment: as above; settings: Homo sapiens, HT-29, 2 h
# [16] = system: MES-SA cells; experiment: as above; settings: Homo sapiens, 2 h
# [17] = system: MES-SA/Dx5 cells; experiment: as above; settings: Homo sapiens, MES-SA/Dx5, 2 h
# [18] = system: H460 cell line; experiment: Anti-proliferation assay, hypoxia vs normoxia (Table 1A); settings: for IC50: Homo sapiens
# [19] = system: HT29; experiment: Anti-proliferation assay, hypoxia vs normoxia (Table 1B); settings: for IC50: Homo sapiens
# [20] = system: DX-5; experiment: as above
# [21] = system: HCT116; experiment: as above; settings: for IC50: Homo sapiens
# [22] = 50 mg/kg i.v., 30% PEG/70% Saline, CD-1 mice
# [23] = CD-1, mouse, plasma, ip, 25 mg/kg, 25 mg/kg i.p., 10% PEG, CD-1 mice
# [24] = CD-1, mouse, plasma, ip, 50 mg/kg, 50 mg/kg i.p., Saline, CD-1 mice
# [25] = CD-1, mouse, plasma, iv, 50 mg/kg, 50 mg/kg i.v., 30% PEG/70% Saline, CD-1 mice
# [26] = CD-1, mouse, plasma, po, 50 mg/kg, 50 mg/kg p.o., Saline, CD-1 mice
# [27] = CD-1, mouse, plasma, po, 100 mg/kg, 100 mg/kg p.o., Saline, CD-1 mice
# [28] = nude, mouse, plasma, ip, 150 mg/kg, 150 mg/kg i.p., Saline, nude mice with H460 tumor
# [29] = nude, mouse, tumor, ip, 150 mg/kg, 150 mg/kg i.p., Saline, nude mice with H460 tumor, Tumor PK
structure (smiles),measurement,setting,value
Cn1c(COP(=O)(NCCBr)NCCBr)cnc1[N+](=O)[O-] [Compound 25],solubility,[1],15 mg/mL
same,IC50,"[2]; NCI-H460, read-out: IC50 in H460 cells, 0.1% O2",1 µM
same,IC50,"[2]; NCI-H460, read-out: IC50 in H460 cells, 0.3% O2",3 µM
same,IC50,"[2]; NCI-H460, read-out: IC50 in H460 cells, 0.6% O2",5 µM
same,IC50,"[2]; NCI-H460, read-out: IC50 in H460 cells, 1% O2",10 µM
same,IC50,"[2]; NCI-H460, read-out: IC50 in H460 cells, 10% O2",25 µM
same,IC50,"[2]; NCI-H460, read-out: IC50 in H460 cells, Air",55 µM
same,IC50,"[2]; NCI-H460, read-out: IC50 in H460 cells, N2",0.1 µM
same,"Reduction Potentials, 100 mV/sec",[3]; scan rate 100 mV/sec,−594 mV
same,"Reduction Potentials, 10,000 mV/sec","[3]; scan rate 10,000 mV/sec",−626 mV
same,AUC,[4]; [22],177 µg·h/mL
same,half-life,[4]; [22],10.1 min
same,Cmax,[4]; [23],6330 ng/mL
same,Tmax,[4]; [23],45 min
same,AUC,"[4]; CD-1, mouse, plasma, ip, 25 mg/kg, 25 mg/kg i.p., 10% PEG, CD-1 mice, read-out: AUC",247 µg·h/mL
same,half-life,"[4]; CD-1, mouse, plasma, ip, 25 mg/kg, 25 mg/kg i.p., 10% PEG, CD-1 mice, read-out: Half-life",4.43 min
same,AUC,"[4]; CD-1, mouse, plasma, ip, 50 mg/kg, 50 mg/kg i.p., 30% PEG/70% Saline, CD-1 mice, read-out: AUC",438 µg·h/mL
same,half-life,"[4]; CD-1, mouse, plasma, ip, 50 mg/kg, 50 mg/kg i.p., 30% PEG/70% Saline, CD-1 mice, read-out: Half-life",11 min
same,Cmax,[4]; [24],38500 ng/mL
same,Tmax,[4]; [24],5 min
same,AUC,"[4]; CD-1, mouse, plasma, ip, 50 mg/kg, 50 mg/kg i.p., Saline, CD-1 mice, read-out: AUC",635 µg·h/mL
same,half-life,"[4]; CD-1, mouse, plasma, ip, 50 mg/kg, 50 mg/kg i.p., Saline, CD-1 mice, read-out: Half-life",7.91 min
same,Cmax,[4]; [25],27500 ng/mL
same,Tmax,[4]; [25],2 min
same,AUC,"[4]; CD-1, mouse, plasma, iv, 50 mg/kg, 50 mg/kg i.v., 30% PEG/70% Saline, CD-1 mice, read-out: AUC",325 µg·h/mL
same,half-life,"[4]; CD-1, mouse, plasma, iv, 50 mg/kg, 50 mg/kg i.v., 30% PEG/70% Saline, CD-1 mice, read-out: Half-life",6.7 min
same,Cmax,[4]; [26],930 ng/mL
same,Tmax,[4]; [26],15 min
same,AUC,"[4]; CD-1, mouse, plasma, po, 50 mg/kg, 50 mg/kg p.o., Saline, CD-1 mice, read-out: AUC",40.4 µg·h/mL
same,half-life,"[4]; CD-1, mouse, plasma, po, 50 mg/kg, 50 mg/kg p.o., Saline, CD-1 mice, read-out: Half-life",25.7 min
same,Cmax,[4]; [27],15800 ng/mL
same,Tmax,[4]; [27],15 min
same,AUC,"[4]; CD-1, mouse, plasma, po, 100 mg/kg, 100 mg/kg p.o., Saline, CD-1 mice, read-out: AUC",784 µg·h/mL
same,half-life,"[4]; CD-1, mouse, plasma, po, 100 mg/kg, 100 mg/kg p.o., Saline, CD-1 mice, read-out: Half-life",95.2 min
same,bioavailability,"[4]; mouse, plasma, po, 50 mg/kg p.o., Saline, CD-1 mice, read-out: F (Bioavailability)",13.6%
same,Cmax,[4]; [28],90100 ng/mL
same,Tmax,[4]; [28],5 min
same,AUC,"[4]; nude, mouse, plasma, ip, 150 mg/kg, 150 mg/kg i.p., Saline, nude mice with H460 tumor, plasma, read-out: AUC",1240 µg·h/mL
same,half-life,"[4]; nude, mouse, plasma, ip, 150 mg/kg, 150 mg/kg i.p., Saline, nude mice with H460 tumor, plasma, read-out: Half-life",58.7 min
same,Cmax,[4]; [29],3380 ng/mL
same,Tmax,[4]; [29],15 min
same,AUC,"[4]; nude, mouse, tumor, ip, 150 mg/kg, 150 mg/kg i.p., Saline, nude mice with H460 tumor, Tumor PK, read-out: AUC",307 µg·h/mL
same,Cmax,"[5]; CD-1, Balb/c for Compound 1, mouse, ip",22900 ng/mL
same,Cmax,"[5]; CD-1, Balb/c for Compound 1, mouse, iv",27500 ng/mL
same,half-life,"[5]; CD-1, Balb/c for Compound 1, mouse, iv, intravenous administration in mice",6.6 min
same,half-life,"[5]; mouse, ip, intraperitoneal administration in mice (min)",11 min
same,half-life,"[5]; mouse, ip, intraperitoneal administration in mice",10.8 min
same,half-life,"[5]; mouse, iv, intravenous administration in mice (min)",6.7 min
same,Plasma stability (at 20 min),[6],102%
same,IC90,[7],15 µM
same,IC50,[8]; read-out: IC50 AA8 Air,> 100 µM
same,IC50,[8]; read-out: IC50 AA8 Anoxia,8 µM
same,IC50,[9]; read-out: IC50 EM9 Air,> 100 µM
same,IC50,[9]; read-out: IC50 EM9 Anoxia,7 µM
same,IC50,[10]; read-out: IC50 UV41 Air,95 µM
same,IC50,[10]; read-out: IC50 UV41 Anoxia,0.2 µM
same,IC50,[11]; read-out: IC50 UV135 Air,> 100 µM
same,IC50,[11]; read-out: IC50 UV135 Anoxia,6 µM
same,IC50,[12]; read-out: IC50 IRS1SF Air,> 100000 nM
same,IC50,[12]; read-out: IC50 IRS1SF Anoxia,2000 nM
same,IC90,[13]; read-out: IC90 H460 Monolayer 0.6% O2,600 nM
same,IC90,[13]; read-out: IC90 H460 Monolayer Air,20000 nM
same,IC90,[13]; read-out: IC90 H460 Monolayer N2,100 nM
same,IC50,"[14]; read-out: IC50 H460 Air, air, 2 h exposure",86 µM
same,IC50,"[14]; read-out: IC50 H460 Anoxia, anoxia, 2 h exposure",0.15 µM
same,IC50,[15]; read-out: IC50 HT29 Air,> 100 µM
same,IC50,[15]; read-out: IC50 HT29 Anoxia,16 µM
same,IC50,[16]; read-out: IC50 MES-SA Air,> 100000 nM
same,IC50,[16]; read-out: IC50 MES-SA Anoxia,900 nM
same,IC50,[17]; read-out: IC50 MES-SA/Dx5 Air,> 100000 nM
same,IC50,[17]; read-out: IC50 MES-SA/Dx5 Anoxia,300 nM
same,IC50,"[18]; NCI-H460, read-out: Hypoxia P (proliferation IC50)",50 nM
same,IC50,"[18]; NCI-H460, read-out: IC50 in cells under hypoxia",50 nM
same,IC50,"[18]; NCI-H460, read-out: Normoxia P (proliferation IC50)",50000 nM
same,fold more toxic in hypoxic cells than in normoxic cells,[18]; anti-proliferation cytotoxicity assay,1000 fold
same,HCR P,[18]; ratio of IC50 in normoxia and hypoxia,1000
same,HT29 HCR P,[19],>6
same,IC50,"[19]; HT-29, read-out: HT29 P H (proliferation IC50, hypoxia)",16 µM
same,IC50,"[19]; HT-29, read-out: HT29 P N (proliferation IC50, normoxic)",> 100 µM
same,DX-5 HCR,[20],>100
same,IC50,"[20]; read-out: DX-5 P H (proliferation IC50, hypoxia)",1000 nM
same,IC50,"[20]; read-out: DX-5 P N (proliferation IC50, normoxic)",> 100000 nM
same,HCT116 HCR,[21],>100
same,IC50,"[21]; HCT-116, read-out: HCT116 P H (proliferation IC50, hypoxia)",900 nM
same,IC50,"[21]; HCT-116, read-out: HCT116 P N (proliferation IC50, normoxic)",> 100000 nM
